Measurements: US10538555B2, “Macrocyclic inhibitors of the PD-1/PD-L1 and CD80(B7-1)/PD-L1 protein/protein interactions” (BRISTOL-MYERS SQUIBB COMPANY, priority 2014, dated 2020)
Where a SMILES comes first, the peptide text is derived from it. Bridges are numbered along the chain shown (N, C = ends). [ ]: non-standard residue; d: D form. Trp(1-CH2COOH) = N[C@@H](Cc1cn(CC(=O)O)c2ccccc12)C(=O)O; Phe(3,4,5-F3) = N[C@@H](Cc1cc(F)c(F)c(F)c1)C(=O)O; Phe(3,4-F2) = N[C@@H](Cc1ccc(F)c(F)c1)C(=O)O; Bta = N[C@@H](Cc1csc2ccccc12)C(=O)O; NMeY = CN[C@@H](Cc1ccc(O)cc1)C(=O)O; Hyp = O=C(O)[C@@H]1C[C@@H](O)CN1; NMeAhp(2) = CCCCC[C@H](NC)C(=O)O; NMeF = CN[C@@H](Cc1ccccc1)C(=O)O; dHyp = O=C(O)[C@H]1C[C@H](O)CN1; NMehSer = CN[C@@H](CCO)C(=O)O; NMeNle = CCCC[C@H](NC)C(=O)O; Pip = O=C(O)[C@@H]1CCCCN1; dPip = O=C(O)[C@H]1CCCCN1; NMeA = CN[C@@H](C)C(=O)O; Orn = NCCC[C@H](N)C(=O)O; dNMeA = CN[C@H](C)C(=O)O; Dab = NCC[C@H](N)C(=O)O; Dap = NC[C@H](N)C(=O)O

biological target: T1, Human PD-L1/PD-1 (Homo sapiens, UniProt Q9NZQ7); assay: HTRF Human PD-L1/PD-1 binding assay (PD-1-Ig/PD-L1-His); details: PD-L1-His 10 nM, PD-1-Ig 20 nM; class symbol; read-out: HTRF Human PD-L1/PD-1 Binding Assay IC50 Range
T1 construct: TVMV protease cleavage site (C); made in house; host or cells: HEK293T cells
T1 sequence (Q9NZQ7 with tags, fused parts or gaps): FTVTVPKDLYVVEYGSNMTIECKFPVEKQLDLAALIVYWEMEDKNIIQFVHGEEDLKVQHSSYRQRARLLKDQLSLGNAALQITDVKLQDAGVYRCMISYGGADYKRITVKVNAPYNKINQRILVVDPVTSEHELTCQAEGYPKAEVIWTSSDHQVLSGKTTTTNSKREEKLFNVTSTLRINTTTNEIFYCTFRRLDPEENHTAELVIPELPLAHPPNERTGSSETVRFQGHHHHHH
How it was run: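 Competition of macrocyclic peptides for PD-1/PD-L1 binding measured by HTRF in dPBS containing 0.1% BSA and 0.05% Tween-20. Compound and PD-L1-His (10 nM final) incubated 15 min before PD-1-Ig (20 nM final) and a further 15 min.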

Structure (SMILES) | IC50 [nM]
CCCC[C@H]1C(=O)N2CCC[C@@H]2C(=O)N[C@@H](CC(=O)O)C(=O)N[C@@H](C(C)C)C(=O)N(C)[C@@H](Cc2ccccc2)C(=O)N[C@@H](CCC(=O)O)C(=O)N2CCCC[C@@H]2C(=O)N[C@@H](Cc2c[nH]c3ccccc23)C(=O)N[C@@H](Cc2ccc(O)cc2)C(=O)N[C@@H](CCCN)C(=O)N[C@H](C(=O)NCC(N)=O)CSCC(=O)N[C@@H](Cc2cc(F)c(F)c(F)c2)C(=O)N(C)[C@@H](Cc2ccc(O)cc2)C(=O)N1C [Example 10601] ({CH2CO}-[Phe(3,4,5-F3)][NMeY][NMeNle][dP]DV[NMeF]E[dPip]WY[Orn]CG-NH2; thioether N-13) | 1 to 9.9
CCCC[C@H]1C(=O)N2C[C@@H](O)C[C@@H]2C(=O)N[C@@H](CC(=O)O)C(=O)N[C@@H](C(C)C)C(=O)N(C)[C@@H](Cc2ccccc2)C(=O)N[C@@H](CCC(=O)O)C(=O)N2C[C@@H](O)C[C@@H]2C(=O)N[C@@H](Cc2c[nH]c3ccccc23)C(=O)N[C@@H](Cc2ccc(O)cc2)C(=O)N[C@@H](CC(C)C)C(=O)N[C@H](C(=O)NCC(N)=O)CSCC(=O)N[C@@H](Cc2ccc(F)c(F)c2)C(=O)N(C)[C@@H](Cc2ccccc2)C(=O)N1C [Example 9277] ({CH2CO}-[Phe(3,4-F2)][NMeF][NMeNle][dHyp]DV[NMeF]E[dHyp]WYLCG-NH2; thioether N-13) | 1 to 9.9
CC(C)C[C@@H]1NC(=O)[C@H](Cc2ccc(O)cc2)NC(=O)[C@H](Cc2c[nH]c3ccccc23)NC(=O)[C@@H](C)N(C)C(=O)[C@H](Cc2ccc(O)cc2)NC(=O)[C@H](Cc2ccccc2)N(C)C(=O)[C@H](C(C)C)NC(=O)[C@H](CC(N)=O)NC(=O)[C@@H](C)N(C)C(=O)[C@H](C)N(C)C(=O)[C@H](Cc2ccccc2)N(C)C(=O)[C@H](Cc2cc(F)c(F)c(F)c2)NC(=O)CSC[C@@H](C(=O)NCC(N)=O)NC1=O [Example 9190] ({CH2CO}-[Phe(3,4,5-F3)][NMeF][NMeA][dNMeA]NV[NMeF]Y[dNMeA]WYLCG-NH2; thioether N-13) | 10 to 99.9
CCCC[C@H]1C(=O)N2C[C@@H](O)C[C@@H]2C(=O)N[C@@H](CC(=O)O)C(=O)N[C@@H](C(C)C)C(=O)N(C)[C@@H](Cc2ccccc2)C(=O)N[C@@H](CCC(=O)O)C(=O)N2C[C@@H](O)C[C@@H]2C(=O)N[C@@H](Cc2c[nH]c3ccccc23)C(=O)N[C@@H](Cc2ccc(O)cc2)C(=O)N[C@@H](CCCN)C(=O)N[C@H](C(=O)NCC(N)=O)CSCC(=O)N[C@@H](Cc2cc(F)c(F)c(F)c2)C(=O)N(C)[C@@H](Cc2ccccc2)C(=O)N1C [Example 9276] ({CH2CO}-[Phe(3,4,5-F3)][NMeF][NMeNle][dHyp]DV[NMeF]E[dHyp]WY[Orn]CG-NH2; thioether N-13) | 1 to 9.9
CCCC[C@H]1C(=O)N(C)CC(=O)N[C@@H](CC(=O)O)C(=O)NC(C(C)c2ccccc2)C(=O)N(C)[C@@H](Cc2ccccc2)C(=O)N[C@@H](Cc2ccc(O)cc2)C(=O)N(C)CC(=O)N[C@@H](Cc2c[nH]c3ccccc23)C(=O)N[C@@H](Cc2ccc(O)cc2)C(=O)N[C@@H](CC(C)C)C(=O)N[C@H](C(=O)NCC(N)=O)CSCC(=O)N[C@@H](Cc2ccccc2)C(=O)N(C)[C@@H](Cc2ccccc2)C(=O)N1C (single isomer, unassigned) [Example 3230-C] | 100 to 990

Further lines, results first:

IC50 [nM] | Structure (SMILES)
10 to 99.9 | CCCC[C@H]1C(=O)N(C)[C@@H](CCCC)C(=O)N[C@@H](C)C(=O)N[C@H](C(=O)NCC(N)=O)CSCC(=O)N[C@@H](Cc2ccc(O)cc2)C(=O)N2CCCC[C@H]2C(=O)N[C@@H](CC(=O)O)C(=O)N2CCC[C@H]2C(=O)N[C@@H](Cc2cnc[nH]2)C(=O)N[C@@H](CCC(N)=O)C(=O)N2C[C@H](O)C[C@H]2C(=O)N[C@@H](Cc2c[nH]c3ccccc23)C(=O)N[C@@H](CO)C(=O)N[C@@H](Cc2csc3ccccc23)C(=O)N1C [Example 1509] ({CH2CO}-Y[Pip]DPHQ[Hyp]WS[Bta][NMeNle][NMeNle]ACG-NH2; thioether N-14)
1 to 9.9 | CCCC[C@H]1C(=O)N(C)[C@@H](CCOC)C(=O)N[C@@H](CCC(=O)O)C(=O)N[C@H](C(=O)NCC(N)=O)CSCC(=O)N[C@@H](Cc2ccc(O)cc2)C(=O)N(C)[C@@H](C)C(=O)N[C@@H](CC(N)=O)C(=O)N2CCC[C@H]2C(=O)N[C@@H](Cc2c[nH]cn2)C(=O)N[C@@H](CCC(N)=O)C(=O)N2C[C@H](O)C[C@H]2C(=O)N[C@@H](Cc2c[nH]c3ccccc23)C(=O)N[C@@H](CO)C(=O)N[C@@H](Cc2c[nH]c3ccccc23)C(=O)N1C [Example 10147] ({CH2CO}-Y[NMeA]NPHQ[Hyp]WSW[NMeNle][NMehSer](Me)ECG-NH2; thioether N-14)
1 to 9.9 | CCCC[C@H]1C(=O)N(C)[C@@H](CCCC)C(=O)N[C@@H](CCC(=O)O)C(=O)N[C@H](C(=O)NCC(N)=O)CSCC(=O)N[C@@H](Cc2ccc(OC)cc2)C(=O)N(C)[C@@H](C)C(=O)N[C@@H](CC(=O)O)C(=O)N2CCC[C@H]2C(=O)N[C@@H](Cc2cnc[nH]2)C(=O)N[C@@H](CCC(=O)O)C(=O)N2C[C@H](O)C[C@H]2C(=O)N[C@@H](Cc2c[nH]c3ccccc23)C(=O)N[C@@H](CCN)C(=O)N[C@@H](Cc2c[nH]c3ccccc23)C(=O)N1C [Example 7110] ({CH2CO}-Y(Me)[NMeA]DPHE[Hyp]W[Dab]W[NMeNle][NMeNle]ECG-NH2; thioether N-14)
10 to 99.9 | CCCC[C@H]1C(=O)N(C)[C@@H](CCCC)C(=O)N[C@@H](CCCNC(=N)N)C(=O)N[C@H](C(=O)NCC(N)=O)CSCC(=O)N[C@@H](Cc2ccc(O)cc2)C(=O)N(C)[C@@H](C)C(=O)N[C@@H](CC(=O)O)C(=O)N2CCC[C@H]2C(=O)N[C@@H](Cc2cnc[nH]2)C(=O)N[C@@H](CCCCN)C(=O)N2C[C@H](O)C[C@H]2C(=O)N[C@@H](Cc2c[nH]c3ccccc23)C(=O)N[C@@H](CCCCN)C(=O)N[C@@H](Cc2cn(CC(=O)O)c3ccccc23)C(=O)N1C [Example 6224] ({CH2CO}-Y[NMeA]DPHK[Hyp]WK[Trp(1-CH2COOH)][NMeNle][NMeNle]RCG-NH2; thioether N-14)

same assay, conditions: PD-L1-His 10 nM, PD-1-Ig 20 nM; read-out: HTRF Human PD-L1/PD-1 Binding Assay IC50

IC50 [nM] | Structure (SMILES)
177 | CCCCC[C@H]1C(=O)N[C@@H](CC(C)C)C(=O)N[C@H](C(=O)NCC(N)=O)CSCC(=O)N[C@@H](Cc2ccc(O)cc2)C(=O)N(C)[C@@H](C)C(=O)N[C@@H](CC(N)=O)C(=O)N2CCC[C@H]2C(=O)N[C@@H](Cc2cnc[nH]2)C(=O)N[C@@H](CCC(N)=O)C(=O)N2C[C@H](O)C[C@H]2C(=O)N[C@@H](Cc2c[nH]c3ccccc23)C(=O)N[C@@H](CCN)C(=O)N[C@@H](Cc2cn(CC(=O)O)c3ccccc23)C(=O)N(C)[C@@H](CCCC)C(=O)N1C [Example 6415] ({CH2CO}-Y[NMeA]NPHQ[Hyp]W[Dab][Trp(1-CH2COOH)][NMeNle][NMeAhp(2)]LCG-NH2; thioether N-14)
1000 | CCCC[C@H]1C(=O)N(C)[C@@H](CCCC)C(=O)N[C@@H](CCC(=O)O)C(=O)N[C@H](C(=O)NCC(N)=O)CSCC(=O)N[C@@H](Cc2ccc(OC)cc2)C(=O)N(C)[C@@H](C)C(=O)N[C@@H](CCN)C(=O)N2CCC[C@H]2C(=O)N[C@@H](CN)C(=O)N[C@@H](CCCCN)C(=O)N2C[C@H](O)C[C@H]2C(=O)N[C@@H](Cc2c[nH]c3ccccc23)C(=O)N[C@@H](CC(=O)O)C(=O)N[C@@H](Cc2c[nH]c3ccccc23)C(=O)N1C [Example 7116] ({CH2CO}-Y(Me)[NMeA][Dab]P[Dap]K[Hyp]WDW[NMeNle][NMeNle]ECG-NH2; thioether N-14)
